# Data taken from patent US11395867B2, “Degradable removable implant for the sustained release of an active compound” (Janssen Sciences Ireland Unlimited Company, priority 2009, dated 2022).
# Where “and” joins values, the source holds several entries; their conditions need not be identical. Identical values can stand only once.
# Experiments:
# [1] = Solubility experiments of TMC278 in water; type: physicochemical
# Excerpt: The solubility of TMC278 dramatically increases at pH=2. […] The use of an acidic binder gel that can effectively lower pH, can increase the rate of elution of TMC278 from the polymer matrix. Increasing the concentration of the acidic polymer in the gel can depress the pH even further (Table 1).
# [2] = In vivo testing of electrostatically spun tube containing two sets of microparticles, plasma concentrations; design: species or system Sprague-Dawley rats; details: rat, subcutaneous electrospun tube implant, TMC278 139 mg/kg, compound 1 64 mg/kg, individual animals 1-4
# Description: Tubes were electrostatically spun from a 100 mg/ml polydioxanone (IVHFIP=1.99 dl/g) hexafluoroisopropanol solution. A 4 mm mandrel was used to provide a consistent inner diameter of 4 mm. The rotational speed of the mandrel was 400 rpm, the charging voltage range was 20/−10 kV, and the pump flow rate was 10 ml/hour. The resulting wall thickness was 500 microns. Fiber diameters were 1-2 microns and the average pore size formed from the network of fibers was 20 microns as determined by Scanning Electron Microscopy.
# The microparticles were prepared by the spinning disc method using a polymer/acetone solution with a concentration ranging from 3-4% (w/w). Two sets of microparticles were prepared. The target composition of one set was 70% (w/w) TMC278 and 30% (w/w) PLGA 50/50 (Lakeshore Biomaterials IVHFIP=0.79 dl/g). The target composition of the other set of microparticles was 70% (w/w) of compound 1 (=compound 14 of WO01/25240) and 30% (w/w) PLGA 50/50 (Lakeshore Biomaterials IVHFIP=0.18 dl/g). This compound 1 has the following structure and will be referred to hereinafter as compound 1:
# Approximately 133 mg of the microparticle mixture was introduced into the electrostatically prepared tubes using a spatula.
# The prepared tubes were implanted into the subcutaneous space on the back of four male Sprague-Dawley rats weighing between 250-350 grams. The dose of TMC278 was 139 mg/kg and the dose of compound 1 was 64 mg/kg. The tail vein was sampled at pre-determined time points. Blood samples were immediately centrifuged to extract the plasma, plasma was analyzed for compound 1 and TMC278 by LC/MS/MS. The lower limit of quantitation was 0.4 ng/ml and 2 ng/ml for TMC278 and compound 1, respectively.
# [3] = In vivo testing of laser drilled melt extruded tube containing two sets of microparticles, plasma concentrations; details: rat, subcutaneous laser drilled extruded tube implant, TMC278 139 mg/kg, compound 1 64 mg/kg, individual animals 1-4
# Description: Tubes with inner diameter of 4.5 mm were extruded from polydioxanone (IVHFIP=1.99 dl/g) using a ¾ inch single screw extruder fitted with a tube die. The dimensions of the tube were monitored using an in-line laser diameter measuring system and maintained using a puller. Following the extrusion the tubes were laser drilled. In preparation for the laser drilling a mask design was prepared that located the holes 260 microns apart from one another. Scanning electron microscopy was used to size the inner and outer diameter of the holes. […] The microparticles were prepared as described in Example 9. Approximately 133 mg of the microparticle mixture was introduced into the tubes.
# The prepared tubes were implanted into the subcutaneous space on the back of four male Sprague-Dawley rats weighing between 250-350 grams. The dose of TMC278 was 139 mg/kg and the dose of compound 1 was 64 mg/kg. The tail vein was sampled at pre-determined time points. Blood samples were immediately centrifuged to extract the plasma, and plasma was analyzed for compound 1 and TMC278 by LC/MS/MS. The lower limit of quantitation for TMC278 and compound 1 was 0.4 ng/ml and 2.0 ng/ml, respectively.
# [4] = In vivo testing of laser drilled melt extruded tube containing two sets of microparticles formulated with F108, plasma concentrations; design: species or system Sprague-Dawley rats; details: rat, subcutaneous laser drilled extruded tube implant, TMC278 109 mg/kg, compound 1 78 mg/kg, individual animals 1-4
# Description: The laser drilled melt extruded tube was prepared as described above in example 10. The microparticles were prepared by the spinning disc method using a 3% (w/w) polymer/acetone solution. Two sets of microparticles were prepared. The target composition of one set was 70% (w/w) TMC278, 20% (w/w) PLGA 50/50 (Lakeshore Biomaterials IVHFIP=0.79 dl/g), and 10% (w/w) F108 (BASF). The target composition of the other set of microparticles was 70% (w/w) compound 1, 20% (w/w) PLGA 50/50 (Lakeshore Biomaterials IVHFIP=0.18 dl/g), and 10% (w/w) F108. The F108 was added to the polymer solution.
# The size range of the microparticles was determined by randomly selecting a sample of microparticles and placing them on the stage of an optical microscope and using a ruler to measure the various sizes of the microparticles in the randomly selected sample. The size range of the TMC278 and compound 1 microparticles was 10-100 microns and 20-100 microns, respectively. Microparticles were mixed as described in example 9. Approximately 133 mg of the microparticle mixture was introduced into tubes using a spatula to transfer the contents.
# The prepared tubes were implanted into the subcutaneous space on the back of four male Sprague-Dawley rats weighing between 250-350 grams. The dose of TMC278 and compound 1 was 109 mg/kg and 78 mg/kg, respectively. The tail vein was sampled at pre-determined time points. Blood samples were immediately centrifuged to extract the plasma, plasma was analyzed for compound 1 and TMC278 by LC/MS/MS. The lower limit of quantitation for TMC278 and compound 1 was 0.4 ng/ml and 2 ng/ml, respectively.
# [5] = male, Sprague-Dawley, plasma, subcutaneous, 7 day
# [6] = male, Sprague-Dawley, plasma, subcutaneous, 14 day
smiles,measurement,setting,value
"Cc1cc(/C=C/C#N)cc(C)c1Nc1ccnc(Nc2ccc(C#N)cc2)n1 [TMC278, rilpivirine]",solubility in water at pH of 2 relative to pH of 7,[1]; pH 2 vs pH 7,950 times
same,solubility in water,[1]; water,extreme insolubility
same,plasma concentration,[2]; 3 hour,0.562 ng/mL and 0.462 ng/mL and 0.576 ng/mL
same,plasma concentration,[2]; 1 day,0.441 ng/mL and <0.4 ng/mL and 0.575 ng/mL
same,plasma concentration,[2]; 3 day,0.518 ng/mL and <0.4 ng/mL and 0.549 ng/mL
same,plasma concentration,[2]; 7 day,0.645 ng/ml and <0.4 ng/ml (2×)
same,plasma concentration,[2]; 14 day,<0.4 ng/ml (2×) and 0.424 ng/ml
same,plasma concentration,[2]; 28 day,<0.4 ng/ml (2×) and 0.475 ng/ml
same,plasma concentration,[2]; 35 day,0.527 ng/mL and 0.769 ng/mL and 0.400 ng/mL
same,concentration at 3 h,"[2]; male, Sprague-Dawley, plasma, subcutaneous, 3 hour",0.505 ng/mL
same,concentration at 1 day,"[2]; male, Sprague-Dawley, plasma, subcutaneous, 1 day",< 0.4 ng/mL
same,concentration at 3 day,"[2]; male, Sprague-Dawley, plasma, subcutaneous, 3 day",< 0.4 ng/mL
same,concentration at 7 day,[2]; [5],0.421 ng/mL
same,concentration at 14 day,[2]; [6],< 0.4 ng/mL
same,concentration at 28 day,"[2]; male, Sprague-Dawley, plasma, subcutaneous, 28 day",< 0.4 ng/mL
same,concentration at 35 day,"[2]; male, Sprague-Dawley, plasma, subcutaneous, 35 day",< 0.4 ng/mL
same,plasma concentration,[3]; 3 hour,0.551 ng/mL and 1.42 ng/mL and 2.51 ng/mL and 1.61 ng/mL
same,plasma concentration,[3]; 1 day,<0.4 ng/ml (2×) and 0.432 ng/ml and 1.22 ng/ml
same,plasma concentration,[3]; 3 day,<0.4 ng/ml (3×) and 1.14 ng/ml
same,plasma concentration,[3]; 7 day,0.4 ng/mL and 0.695 ng/mL and <0.4 ng/mL
same,plasma concentration,[3]; 14 day,<0.4 ng/mL and 0.425 ng/mL and 0.456 ng/mL
same,plasma concentration,[3]; 28 day,<0.4 ng/mL and 0.451 ng/mL and 1.36 ng/mL and 0.773 ng/mL
same,plasma concentration,[3]; 35 day,<0.4 ng/mL and 0.403 ng/mL and 2.11 ng/mL and 0.881 ng/mL
same,concentration at 7 day,[3]; [5],< 0.4 ng/mL
same,concentration at 14 day,[3]; [6],< 0.4 ng/mL
same,plasma concentration,[4]; 3 hour,2.12 ng/mL and 1.40 ng/mL and 2.42 ng/mL and 1.02 ng/mL
same,plasma concentration,[4]; 1 day,0.797 ng/mL and 0.522 ng/mL and 0.939 ng/mL and <0.4 ng/mL
same,plasma concentration,[4]; 3 day,<0.4 ng/ml (2×) and 0.521 ng/ml
same,plasma concentration,[4]; 7 day,<0.4 ng/ml (2×) and 0.405 ng/ml
same,plasma concentration,[4]; 14 day,<0.4 ng/mL and 0.478 ng/mL and 0.664 ng/mL
same,plasma concentration,[4]; 28 day,2.13 ng/mL and 0.539 ng/mL and 1.13 ng/mL and 2.19 ng/mL
same,plasma concentration,[4]; 35 day,2.17 ng/mL and 0.744 ng/mL and 1.48 ng/mL and 2.48 ng/mL
same,concentration at 3 day,"[4]; male, Sprague-Dawley, plasma, 3 day",0.485 ng/mL
same,concentration at 7 day,"[4]; male, Sprague-Dawley, plasma, 7 day",< 0.4 ng/mL
same,concentration at 14 day,"[4]; male, Sprague-Dawley, plasma, 14 day",0.6 ng/mL
